Laboratory results published in patent US20120115877A1, “Facially Amphiphilic Compounds, Compositions, And Uses Thereof In Treating Cancer” (POLYMEDIX, INC., priority 2010, published 2012).

Columns and labels:
Assay type in all cases: cell-based, human
Conditions in all cases: 10 μM
EKVX = test: NCI-60 screen, Non-Small Cell Lung Cancer
Experimental: (§1) Several compounds were tested at single concentrations (10 μM) against 59 different human tumor cell lines, representing leukemia, melanoma and cancers of the lung, colon, brain, ovary, breast, prostate, and kidney (see, Table 3). The human tumor cell lines of the cancer screening panel were grown in RPMI 1640 medium containing 5% fetal bovine serum and 2 mM L-glutamine. For a typical screening experiment, cells were inoculated into 96 well microtiter plates in 100 μL at plating densities ranging from 5,000 to 40,000 cells/well depending on the doubling time of individual cell lines. After cell inoculation, the microtiter plates were incubated at 37° C., 5% CO2, 95% air and 100% relative humidity for 24 hours prior to addition of the compounds.
(§2) After 24 hours, two plates of each cell line were fixed in situ with TCA, to represent a measurement of the cell population for each cell line at the time of drug addition (Tz). Compounds were solubilized in dimethyl sulfoxide at 400-fold the desired final maximum test concentration and stored frozen prior to use. At the time of drug addition, an aliquot of frozen concentrate was thawed and diluted to twice the desired final maximum test concentration with complete medium containing 50 μg/ml gentamicin. Additional four, 10-fold or ½ log serial dilutions were made to provide a total of five compound concentrations plus control. Aliquots of 100 μl of these different drug dilutions were added to the appropriate microtiter wells already containing 100 μl of medium, resulting in the required final compound concentrations.
(§3) Following drug addition, the plates were incubated for an additional 48 hours at 37° C., 5% CO2, 95% air, and 100% relative humidity. For adherent cells, the assay was terminated by the addition of cold TCA. Cells were fixed in situ by the gentle addition of 50 μl of cold 50% (w/v) TCA (final concentration, 10% TCA) and incubated for 60 minutes at 4° C. The supernatant was discarded, and the plates were washed five times with tap water and air dried. Sulforhodamine B (SRB) solution (100 μl) at 0.4% (w/v) in 1% acetic acid was added to each well, and plates were incubated for 10 minutes at room temperature. After staining, unbound dye was removed by washing five times with 1% acetic acid and the plates were air dried. Bound stain was subsequently solubilized with 10 mM trizma base, and the absorbance was read on an automated plate reader at a wavelength of 515 nm. For suspension cells, the methodology was the same except that the assay was terminated by fixing settled cells at the bottom of the wells by gently adding 50 μl of 80% TCA (final concentration, 16% TCA). Using the seven absorbance measurements (time zero, (Tz), control growth, (C), and test growth in the presence of drug at the five concentration levels (Ti)), the percentage growth was calculated at each of the compound concentrations levels. Percentage growth inhibition was calculated as:
(§4) [(Ti−Tz)/(C−Tz)]×100 for concentrations for which Ti>/=Tz
(§5) [(Ti−Tz)/Tz]×100 for concentrations for which Ti<Tz.
(§6) Three dose response parameters were calculated for each compound. Growth inhibition of 50% (GI50) was calculated from [(Ti−Tz)/(C−Tz)]×100=50, which is the compound concentration resulting in a 50% reduction in the net protein increase (as measured by SRB staining) in control cells during the compound incubation. The compound concentration resulting in total growth inhibition (TGI) was calculated from Ti=Tz. The LC50 (concentration of compound resulting in a 50% reduction in the measured protein at the end of the compound treatment as compared to that at the beginning) indicating a net loss of cells following treatment was calculated from [(Ti−Tz)/Tz]×100=−50. Values were calculated for each of these three parameters if the level of activity was reached; however, if the effect was not reached or was exceeded, the value for that parameter was expressed as greater or less than the maximum or minimum concentration tested.

HOP-62 = test: NCI-60 screen, Non-Small Cell Lung Cancer
Experimental: as §1, §2, §3, §4, §5, §6

HOP-92 = test: NCI-60 screen, Non-Small Cell Lung Cancer
Experimental: as §1, §2, §3, §4, §5, §6

NCI-H226 = test: NCI-60 screen, Non-Small Cell Lung Cancer
Experimental: as §1, §2, §3, §4, §5, §6

NCI-H322M = test: NCI-60 screen, Non-Small Cell Lung Cancer
Experimental: as §1, §2, §3, §4, §5, §6

NCI-H460 = test: NCI-60 screen, Non-Small Cell Lung Cancer
Experimental: as §1, §2, §3, §4, §5, §6

COLO 205 = test: NCI-60 screen, Colon Cancer
Experimental: as §1, §2, §3, §4, §5, §6

HCC-2998 = test: NCI-60 screen, Colon Cancer
Experimental: as §1, §2, §3, §4, §5, §6

HCT-116 = test: NCI-60 screen, Colon Cancer
Experimental: as §1, §2, §3, §4, §5, §6

HCT-15 = test: NCI-60 screen, Colon Cancer
Experimental: as §1, §2, §3, §4, §5, §6

HT29 = test: NCI-60 screen, Colon Cancer
Experimental: as §1, §2, §3, §4, §5, §6

KM12 = test: NCI-60 screen, Colon Cancer
Experimental: as §1, §2, §3, §4, §5, §6

SW-620 = test: NCI-60 screen, Colon Cancer
Experimental: as §1, §2, §3, §4, §5, §6

SF-268 = test: NCI-60 screen, CNS Cancer
Summary of the method: (§7)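 Single-dose 10 μM screen on human tumour lines in RPMI 1640 with 5% FBS, 48 h compound exposure at 37 °C after 24 h pre-plating. Read-out is SRB protein stain (515 nm) after TCA fixation. Percentage growth is calculated relative to time-zero and untreated controls; negative values indicate cell kill.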

SF-295 = test: NCI-60 screen, CNS Cancer
Summary of the method: as §7

SF-539 = test: NCI-60 screen, CNS Cancer
Summary of the method: as §7

SNB-75 = test: NCI-60 screen, CNS Cancer
Summary of the method: as §7

LOX IMVI = test: NCI-60 screen, Melanoma
Experimental: as §1, §2, §3, §4, §5, §6

MALME-3M = test: NCI-60 screen, Melanoma
Experimental: as §1, §2, §3, §4, §5, §6

MDA-MB-435 = test: NCI-60 screen, Melanoma
Experimental: as §1, §2, §3, §4, §5, §6

SK-MEL-28 = test: NCI-60 screen, Melanoma
Experimental: as §1, §2, §3, §4, §5, §6

SK-MEL-2 = test: NCI-60 screen, Melanoma
Experimental: as §1, §2, §3, §4, §5, §6

SK-MEL-5 = test: NCI-60 screen, Melanoma
Experimental: as §1, §2, §3, §4, §5, §6

UACC-257 = test: NCI-60 screen, Melanoma
Experimental: as §1, §2, §3, §4, §5, §6

UACC-62 = test: NCI-60 screen, Melanoma
Experimental: as §1, §2, §3, §4, §5, §6

DU-145 = test: NCI-60 screen, Prostate Cancer
Experimental: as §1, §2, §3, §4, §5, §6

PC-3 = test: NCI-60 screen, Prostate Cancer
Experimental: as §1, §2, §3, §4, §5, §6

NCCSc1cc(SCCN)c(C(F)(F)F)cc1NC(=O)c1cc(C(=O)Nc2cc(C(F)(F)F)c(SCCN)cc2SCCN)ncn1 [Compound F]
Percent Growth (EKVX): 75.72% | Percent Growth (HOP-62): 29.35% | Percent Growth (HOP-92): −24.05% | Percent Growth (NCI-H226): 66.85% | Percent Growth (NCI-H322M): 55.48% | Percent Growth (NCI-H460): 47.73% | Percent Growth (COLO 205): 126% | Percent Growth (HCC-2998): 31.93% | Percent Growth (HCT-116): 32.41% | Percent Growth (HCT-15): 62.31% | Percent Growth (HT29): 56.34% | Percent Growth (KM12): 7.63% | Percent Growth (SW-620): 18.57% | Percent Growth (SF-268): 32.42% | Percent Growth (SF-295): 57.66% | Percent Growth (SF-539): 65.73% | Percent Growth (SNB-75): −20.24% | Percent Growth (LOX IMVI): 6.66% | Percent Growth (MALME-3M): 80.15% | Percent Growth (MDA-MB-435): 70.62% | Percent Growth (SK-MEL-28): 83.94% | Percent Growth (SK-MEL-2): 46.77% | Percent Growth (SK-MEL-5): 62.3% | Percent Growth (UACC-257): 76.46% | Percent Growth (UACC-62): 51.23% | Percent Growth (DU-145): 51.97% | Percent Growth (PC-3): 46.61%

NCCCc1cccc(-c2ccc3oc4ccc(-c5cccc(CCCN)c5)cc4c3c2)c1 [Compound G]
Percent Growth (EKVX): 81.69% | Percent Growth (HOP-62): 72.69% | Percent Growth (HOP-92): 61.6% | Percent Growth (NCI-H226): 104.4% | Percent Growth (NCI-H322M): 108.3% | Percent Growth (NCI-H460): 23.91% | Percent Growth (COLO 205): 26.37% | Percent Growth (HCC-2998): 81.22% | Percent Growth (HCT-116): −37.99% | Percent Growth (HCT-15): 49.71% | Percent Growth (HT29): −51.14% | Percent Growth (KM12): 14.01% | Percent Growth (SW-620): −7.997% | Percent Growth (SF-268): 75.18% | Percent Growth (SF-295): 65.4% | Percent Growth (SF-539): 86.73% | Percent Growth (SNB-75): 66.47% | Percent Growth (LOX IMVI): −75.08% | Percent Growth (MALME-3M): 105% | Percent Growth (MDA-MB-435): 62.07% | Percent Growth (SK-MEL-28): 102.1% | Percent Growth (SK-MEL-2): 72.07% | Percent Growth (SK-MEL-5): 89.15% | Percent Growth (UACC-257): 44.84% | Percent Growth (UACC-62): 72.92% | Percent Growth (DU-145): −23.65% | Percent Growth (PC-3): 54.99%
